# PubChem BioAssay (NCI)
#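 All cell lines were grown in 96-well plates and treated with compound for 48 hours. TGI: total growth inhibition.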
# How the values were obtained:
# Experiment in all cases: inhibition of tumour cell growth, NCI panel, 48 h
# [1] = test system: 786-0 renal
# [2] = test system: A498 renal
# [3] = test system: A549 NSCLC
# [4] = test system: ACHN renal
# [5] = test system: CAKI-1 renal
# [6] = test system: CCRF-CEM leukemia
# [7] = test system: COLO 205 colon
# [8] = test system: DLD-1 colon
# [9] = test system: DMS 114 small cell lung
# [10] = test system: DMS 273 small cell lung
# [11] = test system: EKVX NSCLC
# [12] = test system: HCC-2998 colon
# [13] = test system: HCT-116 colon
# [14] = test system: HL-60(TB) leukemia
# [15] = test system: HOP-18 NSCLC
# [16] = test system: HOP-62 NSCLC
# [17] = test system: HOP-92 NSCLC
# [18] = test system: HT29 colon
# [19] = test system: IGROV1 ovarian
# [20] = test system: K-562 leukemia
# [21] = test system: KM12 colon
# [22] = test system: KM20L2 colon
# [23] = test system: LOX IMVI melanoma
# [24] = test system: LXFL 529 NSCLC
# [25] = test system: M14 melanoma
# [26] = test system: M19-MEL melanoma
# [27] = test system: MALME-3M melanoma
# [28] = test system: NCI-H226 lung
# [29] = test system: NCI-H23 lung
# [30] = test system: NCI-H460 lung
# [31] = test system: NCI-H522 lung
# [32] = test system: OVCAR-3 ovarian
# [33] = test system: OVCAR-4 ovarian
# [34] = test system: OVCAR-5 ovarian
# [35] = test system: OVCAR-8 ovarian
# [36] = test system: RPMI-8226 leukemia
# [37] = test system: RXF 393 renal
# [38] = test system: SF-268 CNS
# [39] = test system: SF-295 CNS
# [40] = test system: SF-539 CNS
# [41] = test system: SK-MEL-28 melanoma
# [42] = test system: SK-MEL-5 melanoma
# [43] = test system: SK-OV-3 ovarian
# [44] = test system: SN12C renal
# [45] = test system: SNB-19 CNS
# [46] = test system: SNB-75 CNS
# [47] = test system: SNB-78 CNS
# [48] = test system: SW-620 colon
# [49] = test system: TK-10 renal
# [50] = test system: U251 CNS
# [51] = test system: UACC-257 melanoma
# [52] = test system: UACC-62 melanoma
# [53] = test system: UO-31 renal
# [54] = test system: XF 498 CNS
# [55] = test system: HCT-15 colon
# [56] = test system: MOLT-4 leukemia
# [57] = test system: SK-MEL-2 melanoma
# [58] = test system: SR leukemia
structure (smiles),measurement,setting,value
CCCCCCCCCCn1cccc1/C=C/c1ccc(/C=C/c2cccn2CCCCCCCCCC)cc1,TGI,[1],> 100 µM
same,TGI,[2],> 100 µM
same,TGI,[3],> 100 µM
same,TGI,[4],> 100 µM
same,TGI,[5],> 100 µM
same,TGI,[6],> 100 µM
same,TGI,[7],> 100 µM
same,TGI,[8],> 100 µM
same,TGI,[9],> 100 µM
same,TGI,[10],> 100 µM
same,TGI,[11],> 100 µM
same,TGI,[12],> 100 µM
same,TGI,[13],> 100 µM
same,TGI,[14],> 100 µM
same,TGI,[15],> 100 µM
same,TGI,[16],> 100 µM
same,TGI,[17],> 100 µM
same,TGI,[18],> 100 µM
same,TGI,[19],> 100 µM
same,TGI,[20],> 100 µM
same,TGI,[21],> 100 µM
same,TGI,[22],> 100 µM
same,TGI,[23],> 100 µM
same,TGI,[24],> 100 µM
same,TGI,[25],> 100 µM
same,TGI,[26],> 100 µM
same,TGI,[27],> 100 µM
same,TGI,[28],> 100 µM
same,TGI,[29],> 100 µM
same,TGI,[30],> 100 µM
same,TGI,[31],> 100 µM
same,TGI,[32],> 100 µM
same,TGI,[33],> 100 µM
same,TGI,[34],> 100 µM
same,TGI,[35],> 100 µM
same,TGI,[36],> 100 µM
same,TGI,[37],> 100 µM
same,TGI,[38],> 100 µM
same,TGI,[39],> 100 µM
same,TGI,[40],> 100 µM
same,TGI,[41],> 100 µM
same,TGI,[42],> 100 µM
same,TGI,[43],> 100 µM
same,TGI,[44],> 100 µM
same,TGI,[45],> 100 µM
same,TGI,[46],> 100 µM
same,TGI,[47],> 100 µM
same,TGI,[48],> 100 µM
same,TGI,[49],> 100 µM
same,TGI,[50],> 100 µM
same,TGI,[51],> 100 µM
same,TGI,[52],> 100 µM
same,TGI,[53],> 100 µM
same,TGI,[54],> 100 µM
COc1ccc(Nc2nc3c(N)cc(C(F)(F)F)cc3nc2-c2ccccc2)cc1OC,TGI,[1],28.9 µM
same,TGI,[2],70 µM
same,TGI,[3],66.1 µM
same,TGI,[4],27.5 µM
same,TGI,[5],42.5 µM
same,TGI,[6],> 100 µM
same,TGI,[7],> 100 µM
same,TGI,[8],> 100 µM
same,TGI,[10],> 100 µM
same,TGI,[11],59.7 µM
same,TGI,[12],89.6 µM
same,TGI,[13],> 100 µM
same,TGI,[55],> 100 µM
same,TGI,[14],> 100 µM
same,TGI,[15],43.8 µM
same,TGI,[16],57.8 µM
same,TGI,[17],46.3 µM
same,TGI,[19],69.7 µM
same,TGI,[20],> 100 µM
same,TGI,[21],> 100 µM
same,TGI,[22],> 100 µM
same,TGI,[23],> 100 µM
same,TGI,[24],46.4 µM
same,TGI,[25],> 100 µM
same,TGI,[26],60.4 µM
same,TGI,[27],38.5 µM
same,TGI,[56],> 100 µM
same,TGI,[28],57.9 µM
same,TGI,[29],> 100 µM
same,TGI,[30],> 100 µM
same,TGI,[31],43.9 µM
same,TGI,[32],42.9 µM
same,TGI,[33],33.8 µM
same,TGI,[34],> 100 µM
same,TGI,[35],43.2 µM
same,TGI,[37],50.2 µM
same,TGI,[38],71.1 µM
same,TGI,[39],44.8 µM
same,TGI,[40],39.6 µM
same,TGI,[57],69.1 µM
same,TGI,[41],> 100 µM
same,TGI,[42],62.3 µM
same,TGI,[43],28.6 µM
same,TGI,[44],47.1 µM
same,TGI,[45],53.8 µM
same,TGI,[46],17.5 µM
same,TGI,[47],75.7 µM
same,TGI,[58],> 100 µM
same,TGI,[48],> 100 µM
same,TGI,[49],47.3 µM
same,TGI,[50],42.8 µM
same,TGI,[51],63.9 µM
same,TGI,[52],44.6 µM
same,TGI,[53],95.3 µM
same,TGI,[54],33.1 µM
CCc1cccc(C)c1NC(=O)CC(=O)NNC(N)=S,TGI,[1],> 100 µM
same,TGI,[3],> 100 µM
same,TGI,[4],> 100 µM
same,TGI,[5],> 100 µM
same,TGI,[6],> 100 µM
same,TGI,[7],> 100 µM
same,TGI,[8],> 100 µM
same,TGI,[9],> 100 µM
same,TGI,[10],> 100 µM
same,TGI,[11],> 100 µM
same,TGI,[12],> 100 µM
same,TGI,[55],> 100 µM
same,TGI,[14],> 100 µM
same,TGI,[15],> 100 µM
same,TGI,[16],> 100 µM
same,TGI,[17],> 100 µM
same,TGI,[18],> 100 µM
same,TGI,[20],> 100 µM
same,TGI,[21],> 100 µM
same,TGI,[22],> 100 µM
same,TGI,[23],> 100 µM
same,TGI,[24],> 100 µM
same,TGI,[25],> 100 µM
same,TGI,[27],> 100 µM
same,TGI,[56],> 100 µM
same,TGI,[28],> 100 µM
same,TGI,[29],> 100 µM
same,TGI,[30],> 100 µM
same,TGI,[31],> 100 µM
same,TGI,[32],> 100 µM
same,TGI,[33],> 100 µM
same,TGI,[34],> 100 µM
same,TGI,[35],> 100 µM
same,TGI,[36],> 100 µM
same,TGI,[37],> 100 µM
same,TGI,[38],> 100 µM
same,TGI,[39],> 100 µM
same,TGI,[41],> 100 µM
same,TGI,[42],> 100 µM
same,TGI,[43],> 100 µM
same,TGI,[44],> 100 µM
same,TGI,[45],> 100 µM
same,TGI,[46],> 100 µM
same,TGI,[47],> 100 µM
same,TGI,[48],> 100 µM
same,TGI,[49],> 100 µM
same,TGI,[50],> 100 µM
same,TGI,[51],> 100 µM
same,TGI,[53],> 100 µM
same,TGI,[54],> 100 µM
